Values of other authors, collected in patent publication US5189064A, “Treatment of cocaine addiction” (Matrix Technologies, Inc., priority 1990, dated 1993).
Like-named read-outs stand apart in the source and are kept apart here. Each block holds one molecule with its values, some of them ahead of it. Square brackets hold non-standard residues; d marks the D form. Ends that are not written are not given here.

Experiments:
[1] = system: enkephalinases; conditions: rat intestinal mucosa
[2] = system: enkephalinase A; conditions: in vitro, calf brain enzyme
[3] = system: enkephalinase B; conditions: in vitro, calf brain enzyme
[4] = biological target: T1, carboxypeptidase A (Bos taurus, UniProt P00730)
T1 sequence (P00730 111-417 limits assumed): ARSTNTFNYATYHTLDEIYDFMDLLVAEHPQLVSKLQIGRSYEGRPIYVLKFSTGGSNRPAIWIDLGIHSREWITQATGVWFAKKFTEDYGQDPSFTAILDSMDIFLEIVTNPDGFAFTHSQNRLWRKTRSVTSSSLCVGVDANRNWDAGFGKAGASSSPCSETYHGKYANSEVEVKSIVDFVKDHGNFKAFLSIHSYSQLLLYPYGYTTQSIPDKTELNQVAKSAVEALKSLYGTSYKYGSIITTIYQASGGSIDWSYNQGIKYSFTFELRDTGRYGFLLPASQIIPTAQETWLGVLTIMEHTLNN

[5] = system: [Met]-enkephalin
[6] = system: enkephalinase
[7] = system: endorphinase
[8] = system: [Met]-enkephalin; conditions: mice
[9] = system: healthy men; conditions: tryptophan 50 mg/kg, tyrosine 100 mg/kg, eight healthy men
[10] = infusion, neurological patients with depression and insomnia
[11] = tryptophan injected into the bloodstream

- inhibitory activity against enkephalinase A [2]: much less effective
- inhibitory activity against enkephalinase B [3]: much less effective
- inhibition of carboxypeptidase A [4]: inhibit carboxypeptidase A
- enkephalinase inhibited ([6]; cortex): 60%
- enkephalinase inhibited ([6]; hypothalamus): 80%
- enkephalinase inhibited ([6]; spinal cord): 84%
- enkephalinase inhibited ([6]; striatum): 78%
- endorphinase inhibited ([7]; cortex): 18%
- endorphinase inhibited ([7]; hypothalamus): 5%
- endorphinase inhibited ([7]; spinal cord): 40%
- endorphinase inhibited ([7]; striatum): 10%
Molecule: N[C@H](Cc1ccccc1)C(=O)O [D-phenylalanine]
- degradation of (D-Ala2-D-Leu5) enkephalin (DAPLE) and Tyr-D-Ala-Gly-Phe (TAAGP) [1]: significantly reduced degradation
- CNS [Met]-enkephalin level ([5]; six days later): remained high
- CNS increases of [Met]-enkephalin ([5]; within 90 minutes following DPA injection): tripled

Molecule: O=C(O)CCc1ccccc1 [hydrocinnamic acid]
- [Met]-enkephalin in the brain [8]: increases of [Met]-enkephalin

- elevations in cortical tryptophan levels [10]: six
Molecule: N[C@@H](Cc1c[nH]c2ccccc12)C(=O)O [tryptophan, L-tryptophan]
- pain discriminability [9]: significantly reduced pain discriminibility
- level of serotonin in the brain elevated [11]: two
- level of tryptophan in the brain elevated [11]: nine

Molecule: N[C@@H](Cc1ccc(O)cc1)C(=O)O [tyrosine, L-tyrosine]
- pain discriminability [9]: not

Molecule: [dF]-Tyr
- inhibitory activity against enkephalinase A [2]: markedly enhances the inhibitory potency
- inhibitory activity against enkephalinase B [3]: markedly enhances the inhibitory potency
